Paper PMC11822212, “High-throughput screening identifies Aurora kinase B as a critical therapeutic target for Merkel cell carcinoma” (Nature Communications, 2025)

Columns and labels:
Assay type in all cases: cell-based, human
MCC13 cells (VN-MCC) = test: qHTS cell viability (CellTiter-Glo, 72 h; primary and follow-up small molecule screen); settings: MCC13, 72h
MCC26 cells (VN-MCC) = test: as above; settings: MCC26, 72h
UISO cells (VN-MCC) = test: as above; settings: UISO, 72h
WAGA cells (VP-MCC) = test: as above; settings: WAGA, 72h
MKL-1 cells (VP-MCC) = test: as above; settings: MKL1, 72h
MKL-2 cells (VP-MCC) = test: as above; settings: MKL2, 72h
[1] = system: VP-MCC cell lines (WAGA, MKL-1, MKL-2); test: qHTS cell viability, VP-MCC cell lines as a group (mean AUC, VP.MCC.avg); settings: re-tested in triplicate, follow-up screen

SMILES: O=C(Nc1cccc(Cl)c1)Nc1ncc(CCNc2ncnc3ccsc23)s1 [SNS-314, reference compound]
- Percent viability (MCC13 cells (VN-MCC); Log (M) -5.33646): 49.0%
- Percent viability (MCC13 cells (VN-MCC); Log (M) -5.81358): 56.7%
- Percent viability (MCC13 cells (VN-MCC); Log (M) -6.2907): 82.7%
- Percent viability (MCC13 cells (VN-MCC); Log (M) -6.76782): 93.1%
- Percent viability (MCC13 cells (VN-MCC); Log (M) -7.24494): 90.9%
- Percent viability (MCC13 cells (VN-MCC); Log (M) -7.72207): 100.8%
- Percent viability (MCC13 cells (VN-MCC); Log (M) -8.19919): 94.5%
- Percent viability (MCC13 cells (VN-MCC); Log (M) -8.67631): 106.6%
- Percent viability (MCC13 cells (VN-MCC); Log (M) -9.15343): 125.4%
- Percent viability (MCC13 cells (VN-MCC); Log (M) -9.63055): 116.5%
- Percent viability (MCC13 cells (VN-MCC); Log (M) -10.1077): 92.5%
- Percent viability (MCC26 cells (VN-MCC); Log (M) -5.33646): 72.0%
- Percent viability (MCC26 cells (VN-MCC); Log (M) -5.81358): 84.0%
- Percent viability (MCC26 cells (VN-MCC); Log (M) -6.2907): 86.8%
- Percent viability (MCC26 cells (VN-MCC); Log (M) -6.76782): 90.3%
- Percent viability (MCC26 cells (VN-MCC); Log (M) -7.24494): 93.9%
- Percent viability (MCC26 cells (VN-MCC); Log (M) -7.72207): 97.6%
- Percent viability (MCC26 cells (VN-MCC); Log (M) -8.19919): 94.0%
- Percent viability (MCC26 cells (VN-MCC); Log (M) -8.67631): 99.1%
- Percent viability (MCC26 cells (VN-MCC); Log (M) -9.15343): 95.5%
- Percent viability (MCC26 cells (VN-MCC); Log (M) -9.63055): 91.7%
- Percent viability (MCC26 cells (VN-MCC); Log (M) -10.1077): 91.9%
- Percent viability (UISO cells (VN-MCC); Log (M) -5.33646): 21.7%
- Percent viability (UISO cells (VN-MCC); Log (M) -5.81358): 56.9%
- Percent viability (UISO cells (VN-MCC); Log (M) -6.2907): 70.9%
- Percent viability (UISO cells (VN-MCC); Log (M) -6.76782): 75.0%
- Percent viability (UISO cells (VN-MCC); Log (M) -7.24494): 93.3%
- Percent viability (UISO cells (VN-MCC); Log (M) -7.72207): 86.0%
- Percent viability (UISO cells (VN-MCC); Log (M) -8.19919): 89.1%
- Percent viability (UISO cells (VN-MCC); Log (M) -8.67631): 101.5%
- Percent viability (UISO cells (VN-MCC); Log (M) -9.15343): 108.7%
- Percent viability (UISO cells (VN-MCC); Log (M) -9.63055): 96.8%
- Percent viability (UISO cells (VN-MCC); Log (M) -10.1077): 98.0%
- Percent viability (WAGA cells (VP-MCC); Log (M) -5.33646): 42.9%
- Percent viability (WAGA cells (VP-MCC); Log (M) -5.81358): 32.8%
- Percent viability (WAGA cells (VP-MCC); Log (M) -6.2907): 39.2%
- Percent viability (WAGA cells (VP-MCC); Log (M) -6.76782): 41.9%
- Percent viability (WAGA cells (VP-MCC); Log (M) -7.24494): 24.7%
- Percent viability (WAGA cells (VP-MCC); Log (M) -7.72207): 26.4%
- Percent viability (WAGA cells (VP-MCC); Log (M) -8.19919): 38.2%
- Percent viability (WAGA cells (VP-MCC); Log (M) -8.67631): 100.0%
- Percent viability (WAGA cells (VP-MCC); Log (M) -9.15343): 100.0%
- Percent viability (WAGA cells (VP-MCC); Log (M) -9.63055): 102.6%
- Percent viability (WAGA cells (VP-MCC); Log (M) -10.1077): 100.0%
- Percent viability (MKL-1 cells (VP-MCC); Log (M) -5.33646): 37.7%
- Percent viability (MKL-1 cells (VP-MCC); Log (M) -5.81358): 37.4%
- Percent viability (MKL-1 cells (VP-MCC); Log (M) -6.2907): 42.7%
- Percent viability (MKL-1 cells (VP-MCC); Log (M) -6.76782): 49.2%
- Percent viability (MKL-1 cells (VP-MCC); Log (M) -7.24494): 26.9%
- Percent viability (MKL-1 cells (VP-MCC); Log (M) -7.72207): 28.2%
- Percent viability (MKL-1 cells (VP-MCC); Log (M) -8.19919): 56.1%
- Percent viability (MKL-1 cells (VP-MCC); Log (M) -8.67631): 100.9%
- Percent viability (MKL-1 cells (VP-MCC); Log (M) -9.15343): 107.4%
- Percent viability (MKL-1 cells (VP-MCC); Log (M) -9.63055): 103.4%
- Percent viability (MKL-1 cells (VP-MCC); Log (M) -10.1077): 99.7%
- Percent viability (MKL-2 cells (VP-MCC); Log (M) -5.33646): 20.8%
- Percent viability (MKL-2 cells (VP-MCC); Log (M) -5.81358): 47.8%
- Percent viability (MKL-2 cells (VP-MCC); Log (M) -6.2907): 56.2%
- Percent viability (MKL-2 cells (VP-MCC); Log (M) -6.76782): 47.9%
- Percent viability (MKL-2 cells (VP-MCC); Log (M) -7.24494): 43.4%
- Percent viability (MKL-2 cells (VP-MCC); Log (M) -7.72207): 52.1%
- Percent viability (MKL-2 cells (VP-MCC); Log (M) -8.19919): 55.1%
- Percent viability (MKL-2 cells (VP-MCC); Log (M) -8.67631): 62.3%
- Percent viability (MKL-2 cells (VP-MCC); Log (M) -9.15343): 100.0%
- Percent viability (MKL-2 cells (VP-MCC); Log (M) -9.63055): 104.9%
- Percent viability (MKL-2 cells (VP-MCC); Log (M) -10.1077): 91.4%
- VP-MCC viability (in words) [1]: consistently and potently reduced VP-MCC viability

SMILES: CCS(=O)(=O)c1cccc(-c2cc(C(=O)NC3CCN(C)CC3)c(C)c3[nH]c4ncc(C)cc4c23)c1 [TAK-901, reference compound]
- Percent viability (MCC13 cells (VN-MCC); Log (M) -5.33646): 26.1%
- Percent viability (MCC13 cells (VN-MCC); Log (M) -5.81358): 79.3%
- Percent viability (MCC13 cells (VN-MCC); Log (M) -6.2907): 86.5%
- Percent viability (MCC13 cells (VN-MCC); Log (M) -6.76782): 99.0%
- Percent viability (MCC13 cells (VN-MCC); Log (M) -7.24494): 119.7%
- Percent viability (MCC13 cells (VN-MCC); Log (M) -7.72207): 113.0%
- Percent viability (MCC13 cells (VN-MCC); Log (M) -8.19919): 118.4%
- Percent viability (MCC13 cells (VN-MCC); Log (M) -8.67631): 116.9%
- Percent viability (MCC13 cells (VN-MCC); Log (M) -9.15343): 104.5%
- Percent viability (MCC13 cells (VN-MCC); Log (M) -9.63055): 119.9%
- Percent viability (MCC13 cells (VN-MCC); Log (M) -10.1077): 98.3%
- Percent viability (MCC26 cells (VN-MCC); Log (M) -5.33646): 25.9%
- Percent viability (MCC26 cells (VN-MCC); Log (M) -5.81358): 20.6%
- Percent viability (MCC26 cells (VN-MCC); Log (M) -6.2907): 33.0%
- Percent viability (MCC26 cells (VN-MCC); Log (M) -6.76782): 64.5%
- Percent viability (MCC26 cells (VN-MCC); Log (M) -7.24494): 80.5%
- Percent viability (MCC26 cells (VN-MCC); Log (M) -7.72207): 93.5%
- Percent viability (MCC26 cells (VN-MCC); Log (M) -8.19919): 87.4%
- Percent viability (MCC26 cells (VN-MCC); Log (M) -8.67631): 96.2%
- Percent viability (MCC26 cells (VN-MCC); Log (M) -9.15343): 90.5%
- Percent viability (MCC26 cells (VN-MCC); Log (M) -9.63055): 91.5%
- Percent viability (MCC26 cells (VN-MCC); Log (M) -10.1077): 63.2%
- Percent viability (UISO cells (VN-MCC); Log (M) -5.33646): 2.3%
- Percent viability (UISO cells (VN-MCC); Log (M) -5.81358): 2.9%
- Percent viability (UISO cells (VN-MCC); Log (M) -6.2907): 16.4%
- Percent viability (UISO cells (VN-MCC); Log (M) -6.76782): 39.6%
- Percent viability (UISO cells (VN-MCC); Log (M) -7.24494): 65.2%
- Percent viability (UISO cells (VN-MCC); Log (M) -7.72207): 80.6%
- Percent viability (UISO cells (VN-MCC); Log (M) -8.19919): 77.5%
- Percent viability (UISO cells (VN-MCC); Log (M) -8.67631): 101.9%
- Percent viability (UISO cells (VN-MCC); Log (M) -9.15343): 102.4%
- Percent viability (UISO cells (VN-MCC); Log (M) -9.63055): 103.6%
- Percent viability (UISO cells (VN-MCC); Log (M) -10.1077): 103.5%
- Percent viability (WAGA cells (VP-MCC); Log (M) -5.33646): 14.8%
- Percent viability (WAGA cells (VP-MCC); Log (M) -5.81358): 27.2%
- Percent viability (WAGA cells (VP-MCC); Log (M) -6.2907): 24.4%
- Percent viability (WAGA cells (VP-MCC); Log (M) -6.76782): 45.2%
- Percent viability (WAGA cells (VP-MCC); Log (M) -7.24494): 29.7%
- Percent viability (WAGA cells (VP-MCC); Log (M) -7.72207): 26.6%
- Percent viability (WAGA cells (VP-MCC); Log (M) -8.19919): 95.5%
- Percent viability (WAGA cells (VP-MCC); Log (M) -8.67631): 121.9%
- Percent viability (WAGA cells (VP-MCC); Log (M) -9.15343): 112.0%
- Percent viability (WAGA cells (VP-MCC); Log (M) -9.63055): 114.1%
- Percent viability (WAGA cells (VP-MCC); Log (M) -10.1077): 123.7%
- Percent viability (MKL-1 cells (VP-MCC); Log (M) -5.33646): 3.5%
- Percent viability (MKL-1 cells (VP-MCC); Log (M) -5.81358): 27.5%
- Percent viability (MKL-1 cells (VP-MCC); Log (M) -6.2907): 14.2%
- Percent viability (MKL-1 cells (VP-MCC); Log (M) -6.76782): 38.9%
- Percent viability (MKL-1 cells (VP-MCC); Log (M) -7.24494): 42.7%
- Percent viability (MKL-1 cells (VP-MCC); Log (M) -7.72207): 48.2%
- Percent viability (MKL-1 cells (VP-MCC); Log (M) -8.19919): 61.6%
- Percent viability (MKL-1 cells (VP-MCC); Log (M) -8.67631): 102.5%
- Percent viability (MKL-1 cells (VP-MCC); Log (M) -9.15343): 100.0%
- Percent viability (MKL-1 cells (VP-MCC); Log (M) -9.63055): 106.9%
- Percent viability (MKL-1 cells (VP-MCC); Log (M) -10.1077): 62.6%
- Percent viability (MKL-2 cells (VP-MCC); Log (M) -5.33646): 3.8%
- Percent viability (MKL-2 cells (VP-MCC); Log (M) -5.81358): 12.3%
- Percent viability (MKL-2 cells (VP-MCC); Log (M) -6.2907): 44.7%
- Percent viability (MKL-2 cells (VP-MCC); Log (M) -6.76782): 52.1%
- Percent viability (MKL-2 cells (VP-MCC); Log (M) -7.24494): 44.0%
- Percent viability (MKL-2 cells (VP-MCC); Log (M) -7.72207): 44.3%
- Percent viability (MKL-2 cells (VP-MCC); Log (M) -8.19919): 48.4%
- Percent viability (MKL-2 cells (VP-MCC); Log (M) -8.67631): 94.9%
- Percent viability (MKL-2 cells (VP-MCC); Log (M) -9.15343): 110.4%
- Percent viability (MKL-2 cells (VP-MCC); Log (M) -9.63055): 106.9%
- Percent viability (MKL-2 cells (VP-MCC); Log (M) -10.1077): 102.9%
- VP-MCC viability (in words) [1]: consistently and potently reduced VP-MCC viability
